Measured values: patent US11266743B2, “Peptide compositions and methods of use thereof” (priority 2017, dated 2022)
“Also recorded” adds a separate entry of the source.

Legend:
Type in all cases: cell-based
P. aeruginosa biofilms = experiment: Activity against P. aeruginosa biofilms; conditions: 25 μM
Method: Bacterial biofilm formation on implanted medical devices is a serious medical problem because these biofilms can lead to life-threatening systemic infections. We tested selected peptides and rationally designed variants against biofilms formed by P. aeruginosa. […] D-NOGCON reduces viable bacteria by 3.6 logs ( 1/3000 reduction) at 25 μM, while the best conventional antibiotic, Ciprofloxacin, reduced viable bacteria by only 1.7 logs ( 1/55 reduction) at 25 μM.

Hela pTRE-LucIVS2 cells = experiment: ALAMARBLUE toxicity assay of CPP-PNA705; conditions: 10 μM CPP-PNA705 conjugate, after 24 hours
Method: CPP-PNA705 cytotoxicity was assessed using several methods known in the art. A Lactate Dehydrogenase (LDH) assay (FIG. 5A) measured the acute cytotoxicity and detects LDH released by cells because of membrane damage resulting from exposure to the CPPs. An ALAMARBLUE® assay (FIG. 5B) and a Bicinchoninic Acid (BCA) Assay (FIG. 5C) both measure the impact of exposure after 24 hours. In the ALAMARBLUE®, assay some reduction in metabolic activity was detected in Hela705 cells treated with 20 μM CPP-PNA705 concentrations for 1 hour.
Hela pTRE-LucIVS2 cells were plated in 96-well plates at 10,000 cells/well. After 24 hours, cells were treated with CPP constructs for 1 Hr in sfDMEM at 37° C., washed in PBS, and allowed to recover for 24 hours in 100 μl complete media. 10 μl ALAMARBLUE® (ThermoFisher) was added to each well and cells were incubated fo4r 2 Hrs at 37° C. Reduction of ALAMARBLUE® was determined by fluorescence at […].

[1] = test system: Hela cells stably transfected with mCherry and GFP1-10; experiment: Split GFP assay (GFP-11 delivery); conditions: all concentrations and temperatures studied
Method: To test the ability of CPPs to deliver other cargoes, specifically a protease-sensitive peptide cargo, we modified the well-known split-GFP assay. CPPs were tested for the ability to deliver the polar 16-residue GFP-11 peptide across the membrane barrier. This peptide rescues the fluorescence of the cytosolic endogenous, non-fluorescent GFP1-10 protein. Here, we stably transfected Hela cells with a plasmid containing the full length mCherry and the non-fluorescent GFP1-10. Following incubation with CPP-GFP-11 constructs at multiple concentrations and temperatures for 30 minutes in serum free DMEM, cells were analyzed by flow cytometry for mCherry and GFP fluorescence (FIG. 17). Live cells expressing mCherry (˜50% of the total cells) were gated and their GFP fluorescence was analyzed. Unlike the luciferase splice correction assay where a single corrected mRNA transcript serves as template for many molecules of functional luciferase, the split GFP assay is stoichiometric; a single GFP-11 peptide can bind to a single GFP1-10 protein producing a finite fluorescent response.
Hela cells were transfected with p_mCherry-GFP1-10 (Addgene plasmid #78591) using LIPOFECTAMINE® 3000 (ThermoFisher). Single mCherry positive cells were sorted into 96-well plates using a BD™ FACSARIA™ cell sorter and colonies were maintained under G418 selection at […]. Stably transfected cells were plated in 12-well plates at 100,000 cells/well and grown overnight in complete DMEM. Cells were washed in PBS and incubated in 500 μl of CPP-GFP-11 solution at variable concentrations at 23° C. and 37° C. for 30 minutes. The CPP-GFP-11 solution was aspirated and 100 μl of 0.025% trypsin solution was added to each well. After detachment, cells were suspended in 500 μL of PBS+2% FBS and 20 mM HEPES. Cells were analyzed using a BD™ LSRII flow cytometer. Cells displaying a normal morphology were gated and first analyzed for mCherry fluorescence using the 543 nM laser. mCherry+ cells were used to generate a histogram of GFP fluorescence measured with the 488 nM laser.

[2] = test system: HeLa, RAW264.7, HepG2, and MCF-7 cells; experiment: TAMRA delivery assay (flow cytometry, confocal microscopy); conditions: 0.5 μM CPP-TA + 4.5 μM CPP-C, 30 minutes at 4° C., 22° C., or 37° C.
Method: To determine the effect of the PNA cargo on delivery, we labeled CPPs, lacking the PNA705 cargo, with the fluorophore TAMRA on a C-terminal cysteine residue (CPP-TA) and measured delivery to multiple cell types. TAMRA-labelled CPPs, mixed with unlabeled CPPs at a 1:10 ratio in serum-free DMEM for a final concentration of 5 μM total peptide, was added to HeLa, RAW264.7, HepG2, and MCF-7 cells in 12-well cell culture plates and incubated for 30 minutes at 4° C., 22° C., or 37° C. prior to flow cytometric analysis (FIGS. 9-16). […] Delivery of TAMRA was verified by confocal microscopy for each cell type.
Hela, RAW264.7, HCT116, HepG2, and MCF-7 cells were plated in 12-well plates at 100,000 cells/well. After 24 hours, cells were gently washed in PBS, topped with 500 μl of CPP-TA solution containing 0.5 μM CPP-TA+4.5 uM CPP-C in sfDMEM without phenol red, and incubated for 30 min at either 4° C., 23° C., or 37° C. The incubation solution was aspirated and cells were treated with 100 μl 0.025% Trypsin for 3 minutes at 23° C. 500 μl DMEM containing 2% FBS, 125 nM Sytox Green, and 20 mM HEPES was used to suspend the cells. Cells were transferred to a filter-topped flow cytometry tube and analyzed on a BD™ LSR II flow cytometer. Cells displaying a normal morphology were gated and first analyzed for GFP fluorescence using the 488 nM laser. GFP negative cells were used to generate a histogram of TAMRA fluorescence, measured with the 543 nM laser.
Cells were treated as described above for the TAMRA delivery assay and immediately imaged to avoid artifacts resulting from fixation. The distribution of TAMRA and Sytox Green was analyzed using a confocal scanning Nikon Eclipse Ti2 inverted microscope using a 40× oil-immersion objective. Sytox Green was excited using the 488 nM laser and TAMRA was excited using the 543 nM laser.

[3] = test system: Hela pTRE-LucIVS2-705 cells; experiment: PNA705 mediated luciferase splice correction (luminescence, RLU/μg protein)
Method: To assess nuclear cargo delivery and splice correction, PNA705 (SEQ ID NO: 11) was used. Luciferase production was quantified at both the protein (FIG. 6) and mRNA levels (FIG. 7). To quantify functional luciferase levels following splice correction, Hela pLuc705 cells were treated with a 2× serial dilution starting at 5 μM of CPP-PNA705 for 30 minutes in serum free DMEM at 37° C., washed in PBS, and allowed to recover for 24 hours in complete media. To assess the impact of endosomal entrapment and subsequent lysosomal degradation, some cells were co-treated with the endosomal acidification inhibitor chloroquine (120 μM) along with 5 μM CPP-PNA705. Cell lysates were assayed for luciferase by luminescence. To control for total cell density, lysates were also analyzed for total protein by the BCA assay.
Hela pTRE-LucIVS2-705 cells were seeded on flat-bottom 96-well plates at 10,000 cells per well in 200 μl complete DMEM. The following day, cells were washed in phosphate buffered saline and topped with premixed 50 μl 2× serum/phenol red free DMEM (Gibco)+50 μl peptide cleavage solution (ddH2O+peptide). Cells were transfected for 30 min at 37° C. with 5% CO2. The transfection solution was removed, cells were washed with PBS, and topped with 100 μl complete DMEM. The next day (24 hour recovery) cells were washed in PBS and lysed in 20 μl reporter lysis buffer (Promega E4030) following the manufacturers protocol. 10 μl of the lysate was removed and total protein concentration was determined using the bicinchoninic acid assay (Pierce BCA Protein Assay-ThermoFisher 23225). The 96-well plate containing the remaining 10 μl lysate was analyzed for luminescence using the Luciferase Assay System (Promega E1500) on a BioTek SYNERGY™ 2 plate reader with injector ports. Data was expressed as Relative Luminescence Units/μg Protein (RLU/μg Protein) and positive wells were defined as those whose RLU/μg Protein values exceeded the average for the plate by at least three standard deviations. […]

Row | Compound | reduction of viable bacteria in biofilm (P. aeruginosa biofilms) [logs] | reduction in metabolic activity (Hela pTRE-LucIVS2 cells) | GFP-11 delivery [1] | TAMRA delivery (words, rank order) [2] | efficiency of PNA705 delivery in cell culture (words, rank order) [3]
1 | O=C(O)c1cn(C2CC2)c2cc(N3CCNCC3)c(F)cc2c1=O [Ciprofloxacin, reference compound] | 1.7 | – | – | – | –
2 | RKKRWFRRRRPKWKK [CPP-1] | – | 20% | deliver GFP-11 to more cells than Tat and penetratin; also recorded: most efficient at GFP-11 delivery | CPP-2»CPP-3=CPP-1>CPP-4>TAT=penetratin | most efficient at PNA delivery
3 | RRKKIWFRRLRMK [CPP-4] | – | little effect | does not deliver GFP-11 or TAMRA significantly | CPP-2»CPP-3=CPP-1>CPP-4>TAT=penetratin; also recorded: does not deliver GFP-11 or TAMRA significantly | successfully delivers PNA705
4 | RRRRRRRRR [Arg9, reference compound] | – | – | – | – | much better than Tat
